Reference: publication PMC12111648, “New Dimethoxyaryl-Sesquiterpene Derivatives with Cytotoxic Activity Against MCF-7 Breast Cancer Cells: From Synthesis to Topoisomerase I/II Inhibition and Cell Death Mechanism Studies” (International Journal of Molecular Sciences, 2025)
Entries after “also recorded” stand apart in the source; their conditions may differ.

How the values were obtained:
Assay type in all cases: cell-based, human
MCF-7 cells [1] = assay: Intracellular ROS generation (DCFH2-DA, flow cytometry); settings: MCF-7, compounds at respective IC50, 24 h, versus control
Experimental: An increase in intracellular ROS may be one of the factors that contribute to the cytotoxicity of certain compounds in cancer cell lines. In fact, ROS and mitochondrial damage are often associated with the induction of cell death. […] DCF fluorescence was then measured by flow cytometry. The difference in the percentage of DCF-positive cells between treated and control cells was used to indicate an increase in intracellular ROS, as shown in Figure 4.
Reactive oxygen species (ROS) production was measured using flow cytometry. Cells were treated with compounds (each with respective IC50 values) for 24 h, with untreated cells serving as the negative control and cells treated with 1 µM daunorubicin as the positive control. Following the treatment, intracellular ROS levels were visualized after incubation with 2′,7′-dichlorodihydro-fluorescein diacetate (DCFH2-DA) at a final concentration of 10 μM for the last 30 min of the treatment period. After incubation, the cells were washed with PBS, trypsinized, and centrifuged, and the resulting pellet was resuspended in PBS and immediately examined by flow cytometry.
Figure 4 The effect of the compound’s treatment on intracellular ROS generation. Cells were treated with compounds (respective IC50 values for each compound for 24 h), and intracellular ROS levels were determined in the human cancer cell line MCF-7 by flow cytometry using dichloro-fluorescein diacetate (DCFH2-DA). * p < 0.05 versus control cells (Ctrl). The data represent the means ± S.D. of at least three experiments with triplicate samples.

MCF-7 cells [2] = assay: Mitochondrial membrane potential (rhodamine 123, flow cytometry); settings: MCF-7, compounds at respective IC50, 24 h
Experimental: To determine whether the toxic effects of selected sesquiterpenes (10c, 11c, 12c, 13c, and 14c) are due to the production of ROS and subsequent apoptosis, the mitochondrial membrane potential was measured. With this aim, a protocol using rhodamine 123 staining and flow cytometry was established to study the effect of the selected compounds [40]. The accumulation of rhodamine 123 in mitochondria is associated with the maintenance of the electrochemical gradient in mitochondria. Daunorubicin was used as a positive control (C+). The results are presented as the percentage of cells with increased mitochondrial membrane permeability.
Rhodamine 123 (Rho123), a positively charged dye that reacts to voltage changes and enters the mitochondria, was utilized to detect modifications in the mitochondrial membrane potential. The cells were exposed to specific compounds (IC50 values for each compound) for 24 h. Control cells that had not been treated were used as negative control, while cells treated with daunorubicin at a concentration of 1 µM served as the positive control. Following this, the cells were incubated with Rho123 (at a concentration of 1 µM) in darkness for an hour at 37 °C. Afterward, the medium was taken out, and the cells were washed with PBS. The cells were then dissociated using trypsin and collected through centrifugation for 10 min at 1500×g. The supernatant was thrown away, and the cell pellets were resuspended in PBS and analyzed using flow cytometry with the FL1 filter. The results are shown as the percentage of Rho123-stained cells.
Figure 5 The effect of the compound’s treatment on mitochondrial membrane potential. […] The data represent the means ± S.D. of at least three experiments with triplicate samples.

MCF-10 cells = assay: MTT cytotoxicity assay on non-tumoral MCF-10 cells; settings: Homo sapiens, MCF10, 48 h incubation, IC50 ± SD, three experiments in triplicate
Experimental: In this study, we wondered whether semi-synthetic compounds have potential antitumoral properties against BC. Therefore, we were interested in investigating the effect of the compounds on the MCF-7 cell line. Firstly, we studied the effect on cell viability using a colorimetric MTT assay, which was performed to quantify the cytotoxic activity; each compound was evaluated at different concentrations (500−100−20−4−0.8−0.16−0.032−0 µM). Daunorubicin was also used as a positive control for comparison with a reference drug. […] Although the MCF-10 cell line provides a useful selectivity model, it may not fully represent the varying sensitivities of different normal cell types within a multicellular organism. The SI value indicates the ratio of toxicity in mammalian host cells to that in a tumoral cell. The data obtained in response to different concentrations of compounds were used to calculate the IC50 and corresponding SI values, as shown in Table 1.
The American Type Culture Collection (Rockville, MD, USA) supplied the following experimental cell lines: MCF-7, a human breast cancer cell line, and MCF-10A, a human epithelial breast cell line (ATCC N° CRL-10317). Both cell lines were grown in DMEM-F12 medium containing 10% FCS, 100 U/mL penicillin, 100 μg/mL streptomycin, and 1 mM glutamine. The cells were seeded at a concentration of 100 μL per well at a plating density of 3 × 10^3 cells/well and incubated for 24 h at 37 °C under 5% humidified CO2 to enable attachment. The cells were then treated with varying concentrations of synthesized compounds for […] under the same conditions. The compound stock solution was prepared in DMSO, and the final concentration of DMSO was kept at 0.1%. Control cultures were treated with only 1% ethanol.
Cells from the MCF-7 and MCF-10 lines were seeded into 96-well plates at a density of 1 × 10^4 per well. After 24 h, the compounds were added at increasing concentrations (500–100–20-4–0.8–0.16–0.032–0 µM), and the cells were incubated at 37 °C in a humidified 5% CO2/95% air mixture for 48 h. Following incubation, the cells were washed twice with PBS, and 100 μL of 0.5 mg/mL MTT solution was added to each well. After 2 h of incubation, the MTT solution was removed, and the formazan crystals were dissolved in 50 μL of DMSO per well. Absorbance was then measured at 570 nm using a microplate ELISA reader. IC50 values, determined from three independent experiments conducted in triplicate, were calculated using SigmaPlot® software (version 11.0). The selectivity index (SI) of each compound in each cell line was determined by calculating the ratio of the IC50 values for MCF-10 and cancer cell lines. Compounds were considered selective if SI values were equal to or greater than 3 [46].

| Structure (SMILES) | intracellular ROS levels (DCF fluorescence) (MCF-7 cells [1]) | mitochondrial membrane permeability (MCF-7 cells [2]) | IC50 (MCF-10 cells) [µM] |
| --- | --- | --- | --- |
| COc1ccc(/C=C2\C(C)=CCC3C(C)(C)CCC[C@]23C)cc1OC (stereo partly drawn) [Compound 13c, (4aS)-5-((E)-3,4-Dimethoxybenzylidene)-1,1,4a,6-tetramethyl-1,2,3,4,4a,5,8,8a-octahydronaphthalene] | significantly increased | did not increase | 135 ± 26.6 |
| COc1cc2c(cc1OC)[C@]1(C)CCC3C(C)(C)CCC[C@]3(C)C1=C2 (stereo partly drawn) [Compound 14c, (6aR,11bS)-8,9-Dimethoxy-4,4,6a,11b-tetramethyl-2,3,4,4a,5,6,6a,11b-octahydro-1H-benzo[a]fluorene] | induced oxidative stress; also recorded: significantly increased | did not increase | 393 ± 47.1 |
